Source: EP0252983B1, “SALTS OF N-(VINYLOXIETHYL)DITHIOCARBAMIC ACID, METHOD OF OBTAINING THEREOF AND […] ON THEM” (priority 1985, dated 1987)

Legend:
[1] = system: Geotrichum candidum Link; test: Mycelial growth inhibition on agar (contact activity); type: cell-based; conditions: Tabelle 11
Experimental: (§1) Die Prüfungen werden nach dem Verfahren zur Ermittlung der Kontaktaktivität durchgeführt. Man verwendet das in Wasser gelöste Kalium-N-(vinyloxyäthyl)dithiocarbamat, führt es in ein Nährmedium ein und vergießt auf Petri-Schalen. Nach 24 Stunden wird mit Pilzmyzelium nach einem Stichverfahren geimpft. Dann temperiert man die Schalen innerhalb von 5 Tagen bei einer zwischen 24 und 26 °C liegenden Temperatur und mißt den Durchmesser von Pilzkolonien, ermittelt den Prozentsatz der Hemmung des Myzelwachstums (S) ausgehend von Angaben am 5. Tag nach der Abbott-Formel [drawing 13] worin dc für den Durchmesser der Pilzkolonien, de für den Durchmesser von Pilzkolonien in der Schale stehen, wo ein die zu prüfenden Stoffe enthaltendes Medium vorhanden ist. Dieses Verfahren zur Ermittlung der mikrobiologischen Aktivität ist in anderen Beispielen verwendet.
(§2) Die Pilzkulturen werden auf Würzeagar gezüchtet. Ergebnisse, erhalten bei der Prüfung der fungiziden Aktivität gegen reine Kulturen von Mikroorganismen, welche Bioschädigungen hervorrufen, sind in der Tabelle 1 dargestellt.

[2] = system: Penicillium charlesii; test: as above; type: cell-based; conditions: Tabelle 11
Experimental: as §1, §2

[3] = system: Penicillium chrysogenum; test: as above; type: cell-based; conditions: Tabelle 11
Experimental: as §1, §2

[4] = system: Walrotiela subiculesa; test: as above; type: cell-based; conditions: Tabelle 11
Experimental: as §1, §2

[5] = system: Bacillus; test: Bactericidal activity on agar (concentration of complete growth inhibition); type: cell-based; conditions: % bezogen auf den Wirkstoff; am 5. Tag
Experimental: (§3) Geprüft wird die bakterizide Aktivität von Kalium-, Natrium-, Zink- und Kupfersalzen der N-(Vinyloxyäthyl)dithiocarbamidsäure gegen Bakterien der Gattungen Bacillus, Micrococcus, Pseudomonas, Escherichia und Xantomonas.
(§4) Man stellt wäßrige Stofflösungen verschiedener Konzentration her, die so berechnet werden, daß die Stoffkonzentration in der Petri-Schale bei der Gabe von 1 ml Lösung in das geschmolzene Nährmedium (45 bis 50 °C) zwischen 0,003 und 25 % (bezogen auf den Wirkstoff) schwankt. Nach 18 bis 24 Stunden bringt man auf die Oberfläche des Nährmediums 0,1 ml wäßrige Suspension eintägiger reiner Kulturen von Bakterien auf und verteilt sie gleichmäßig. In Kontrollschalen verteilt sich 0,1 ml Wasser über die Oberfläche des Nährmediums. Die Inkubation erfolgt bei 37 °C innerhalb von 5 Tagen. Die Wirksamkeit der Stoffe wird nach dem Auftreten des Bakterienwachstums auf der Oberfläche des Nährmediums eingeschätzt. Die Prüfergebnisse sind in der Tabelle 13 dargestellt.

[6] = system: Escherichia; test: as above; type: cell-based; conditions: % bezogen auf den Wirkstoff; am 5. Tag
Experimental: as §3, §4

[7] = system: Micrococcus; test: as above; type: cell-based; conditions: % bezogen auf den Wirkstoff; am 5. Tag
Experimental: as §3, §4

[8] = system: Pseudomonas; test: as above; type: cell-based; conditions: % bezogen auf den Wirkstoff; am 5. Tag
Experimental: as §3, §4

[9] = system: Xantomonas; test: as above; type: cell-based; conditions: % bezogen auf den Wirkstoff; am 5. Tag
Experimental: as §3, §4

[10] = Solubility in water (descriptive); type: physicochemical
[11] = Storage stability (descriptive); type: physicochemical
[12] = system: Cladosporium resinae; test: Mycelial growth inhibition on agar (contact activity); type: cell-based; conditions: Tabelle 11
[13] = system: Cladosporium cladosporioides; test: as above; type: cell-based; conditions: Tabelle 11
[14] = system: Acremonium cowum; test: as above; type: cell-based; conditions: Tabelle 11
[15] = system: Acremonium charticola; test: as above; type: cell-based; conditions: Tabelle 11
[16] = Konzentration des Präparats 0,01 %
[17] = Konzentration des Präparats 0,02 %
[18] = Konzentration des Präparats 0,05 %
[19] = Konzentration des Präparats 0,10 %
[20] = Konzentration des Präparats 0,005 %

Substance: Kupfer-bis-(N-vinyloxyäthyldithiocarbamat)
- Myzelhemmung in % [1, 16]: 100%
- Myzelhemmung in % [1, 17]: 100%
- Myzelhemmung in % [1, 18]: 100%
- Myzelhemmung in % [1, 19]: 100%
- Myzelhemmung in % [1, 20]: 100%
- Myzelhemmung in % [2, 16]: 30%
- Myzelhemmung in % [2, 17]: 80%
- Myzelhemmung in % [2, 18]: 100%
- Myzelhemmung in % [2, 19]: 100%
- Myzelhemmung in % [2, 20]: 15%
- Myzelhemmung in % [3, 16]: 25%
- Myzelhemmung in % [3, 17]: 36%
- Myzelhemmung in % [3, 18]: 70%
- Myzelhemmung in % [3, 19]: 100%
- Myzelhemmung in % [3, 20]: 10%
- Myzelhemmung in % [4, 16]: 0%
- Myzelhemmung in % [4, 17]: 10%
- Myzelhemmung in % [4, 18]: 37%
- Myzelhemmung in % [4, 19]: 100%
- Myzelhemmung in % [4, 20]: 0%
- Konzentrationen, welche das Bakterienwachstum völlig (100 %) hemmen [5]: 0,15%
- Konzentrationen, welche das Bakterienwachstum völlig (100 %) hemmen [6]: 0,15%
- Konzentrationen, welche das Bakterienwachstum völlig (100 %) hemmen [7]: 0,15%
- Konzentrationen, welche das Bakterienwachstum völlig (100 %) hemmen [8]: 0,15%
- Konzentrationen, welche das Bakterienwachstum völlig (100 %) hemmen [9]: 0,15%
- Löslichkeit in Wasser [10]: unlöslich
- Lagerbeständigkeit [11]: lagerbeständig
- Myzelhemmung in % [12, 16]: 50%
- Myzelhemmung in % [12, 17]: 80%
- Myzelhemmung in % [12, 18]: 90%
- Myzelhemmung in % [12, 19]: 100%
- Myzelhemmung in % [12, 20]: 34%
- Myzelhemmung in % [13, 16]: 36%
- Myzelhemmung in % [13, 17]: 65%
- Myzelhemmung in % [13, 18]: 80%
- Myzelhemmung in % [13, 19]: 100%
- Myzelhemmung in % [13, 20]: 15%
- Myzelhemmung in % [14, 16]: 100%
- Myzelhemmung in % [14, 17]: 100%
- Myzelhemmung in % [14, 18]: 100%
- Myzelhemmung in % [14, 19]: 100%
- Myzelhemmung in % [14, 20]: 100%
- Myzelhemmung in % [15, 16]: 96%
- Myzelhemmung in % [15, 17]: 100%
- Myzelhemmung in % [15, 18]: 100%
- Myzelhemmung in % [15, 19]: 100%
- Myzelhemmung in % [15, 20]: 70%
